Assay [1] deals with T1, K-Ras G12C (Homo sapiens, UniProt P01116, G12C). In words: Western blot assay for in cell alkylation of K-Ras G12C (HCC1171 cells). The arrangement: endogenous in cells; host or cells: HCC1171. The class given is cell-based. To be noted: 18 hours at 37° C., 7 point dose response. An outline of the steps: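 HCC1171 cells exposed to compounds for 18 h at 37° C, lysed, and analysed by SDS-PAGE/western blot with anti-K-Ras antibody and fluorescent secondary. Alkylated K-Ras separated by band shift; % alkylation = FI(alkylated)/(FI(alkylated)+FI(unalkylated))×100, IC50 from 7-point dose response.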
Target sequence in this assay (P01116 1-188 isoform P01116-2 G12C): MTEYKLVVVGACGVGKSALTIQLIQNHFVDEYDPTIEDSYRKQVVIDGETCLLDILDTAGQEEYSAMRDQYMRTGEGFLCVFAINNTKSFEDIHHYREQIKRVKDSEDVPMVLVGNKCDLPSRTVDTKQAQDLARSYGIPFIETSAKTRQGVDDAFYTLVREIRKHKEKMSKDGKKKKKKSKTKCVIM

In assay [2] the target is T1, K-Ras G12C. Kind of assay: K-Ras G12C, SOS1, Raf RBD HTRF assay for inhibition of GTP exchange. The class given is biochemical. The arrangement: K-Ras G12C (residues 2-188) and SOS1 (residues 564-1049) had N-terminal 6-His; made in house; host or cells: E. coli. The following applies: 18 hours preincubation with K-Ras G12C at room temperature; SOS1-mediated GTP exchange. The procedure, abridged: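 After 18 h at room temperature with compound, SOS1 (1.25 nM final) started exchange to GTP (150 μM final). C-Raf RBD, Tb-anti-FLAG and D2-anti-his (50, 1 and 12.5 nM) were then added. The 665/615 nm HTRF ratio was read after 2 h; buffer was HEPES/NaCl, 1 mM MgCl2, BSA, Tween-20 and DTT.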
Target sequence in this assay (P01116 2-188 isoform P01116-2 G12C): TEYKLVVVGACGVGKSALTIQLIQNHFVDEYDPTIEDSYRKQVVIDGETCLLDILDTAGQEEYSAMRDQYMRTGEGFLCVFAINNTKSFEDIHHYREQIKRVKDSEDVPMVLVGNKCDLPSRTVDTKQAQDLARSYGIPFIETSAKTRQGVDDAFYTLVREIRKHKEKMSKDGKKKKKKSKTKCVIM
(In general: Time-resolved FRET reads energy transfer from a long-lived donor to a nearby acceptor.)

The values that follow come from patent US11760744B2, “Fused ring compounds” (Genentech, Inc., priority 2018, dated 2023).

The EC50 is the midpoint of the concentration-response curve. Read a low EC50 as a more potent agent. As usually defined, the IC50 is the point on the concentration scale where inhibition reaches its midpoint. `C=CC(=O)N1CCN(c2nc(OC[C@H]3COC(=O)N3C)nc3c2CC[C@H](c2cc(O)cc4ccccc24)C3)[C@@H](C)C1` (single isomer, unassigned) [Example 57d] yielded an EC50 at K-Ras G12C [1] of 880 nM. Further, the IC50 on K-Ras G12C [2] was 45 nM.

`C=CC(=O)N1CCN(c2nc(OC[C@@H]3CCCN3C)nc3c2CC[C@H](c2cc(O)cc4ccccc24)C3)C[C@@H]1CC#N` (single isomer, unassigned) [Example 58b]: on K-Ras G12C [1], the response was half-maximal at 1900 nM (EC50). The compound also gave an IC50 against K-Ras G12C [2] of 130 nM.

`C=CC(=O)N1CCN(c2nc(OC[C@@H]3CCCN3C)nc3c2CC[C@H](c2cc(O)cc4ccccc24)C3)C[C@H]1CC#N` (single isomer, unassigned) [Example 58c] yielded an EC50 on K-Ras G12C [1] of 340 nM. Besides, on K-Ras G12C [2], the IC50 stood at 29 nM.

At K-Ras G12C [1], `C=CC(=O)N1CCN(c2nc(OC[C@@H]3CCCN3C)nc3c2CC[C@@H](c2cc(O)cc4ccccc24)C3)C[C@@H]1CC#N` (single isomer, unassigned) [Example 58d] had an EC50 of 6.3 nM. On K-Ras G12C [2], the IC50 is 24 nM.

For `C=CC(=O)N1CCN(c2nc(OC[C@@H]3CCCN3C)nc3c2CC[C@@H](c2cc(O)cc4ccccc24)C3)C[C@H]1CC#N` (single isomer, unassigned) [Example 58e], on K-Ras G12C [1], a half-maximal response (EC50) required 110 nM. Half-maximal inhibition on K-Ras G12C [2] (IC50) required 29 nM.

For the compound `C=C(F)C(=O)N1CCN(c2nc(OC[C@@H]3CCCN3C)nc3c2CC[C@H](c2cc(O)cc4ccccc24)C3)C[C@H]1CC#N` (single isomer, unassigned) [Example 61b], the midpoint of the response on K-Ras G12C [1], the EC50, lay at 2800 nM. Moreover, on K-Ras G12C [2], inhibition was half-maximal at 640 nM (IC50).

For `C=C(F)C(=O)N1CCN(c2nc(OC[C@@H]3CCCN3C)nc3c2CC[C@H](c2cc(O)cc4ccccc24)C3)C[C@@H]1CC#N` (single isomer, unassigned) [Example 61c], the EC50 on K-Ras G12C [1] came out at 1800 nM. The compound further registered an IC50 against K-Ras G12C [2] of 83 nM.

On K-Ras G12C [1], `C=C(F)C(=O)N1CCN(c2nc(OC[C@@H]3CCCN3C)nc3c2CC[C@@H](c2cc(O)cc4ccccc24)C3)C[C@H]1CC#N` (single isomer, unassigned) [Example 61d] came in with an EC50 of 11 nM. In addition, the IC50 against K-Ras G12C [2] was determined as 28 nM.

In turn, `C=C(F)C(=O)N1CCN(c2nc(OC[C@@H]3CCCN3C)nc3c2CC[C@@H](c2cc(O)cc4ccccc24)C3)C[C@@H]1CC#N` (single isomer, unassigned) [Example 61e] returned an EC50 on K-Ras G12C [1] of 1500 nM. Further, half-maximal inhibition on K-Ras G12C [2] (IC50) was put at 90 nM.

For the compound `CN1CCC[C@H]1COc1nc2c(c(N3CCN(C(=O)/C=C/CF)[C@H](CC#N)C3)n1)CC[C@H](c1cc(O)cc3ccccc13)C2` (single isomer, unassigned) [Example 62b], at K-Ras G12C [1], a half-maximal effect (EC50) was put at 2900 nM. Besides, on K-Ras G12C [2], the IC50 turned out to be 180 nM.

With `CN1CCC[C@H]1COc1nc2c(c(N3CCN(C(=O)/C=C/CF)[C@@H](CC#N)C3)n1)CC[C@H](c1cc(O)cc3ccccc13)C2` (single isomer, unassigned) [Example 62c], it took 1000 nM to reach a half-maximal effect on K-Ras G12C [1] (EC50). At K-Ras G12C [2], this compound gave an IC50 of 73 nM.

As to `CN1CCC[C@H]1COc1nc2c(c(N3CCN(C(=O)/C=C/CF)[C@H](CC#N)C3)n1)CCC(c1cc(O)cc3ccccc13)C2` (single isomer, unassigned) [Example 62d], the concentration for a half-maximal effect (EC50) on K-Ras G12C [1] was determined as 6.4 nM. The compound further yielded an IC50 against K-Ras G12C [2] below 10 nM.

For `CN1CCC[C@H]1COc1nc2c(c(N3CCN(C(=O)/C=C/CF)[C@@H](CC#N)C3)n1)CC[C@@H](c1cc(O)cc3ccccc13)C2` (single isomer, unassigned) [Example 62e], the midpoint of the response at K-Ras G12C [1], the EC50, lay at 450 nM. The IC50 on K-Ras G12C [2] came out at 660 nM.

For `C=CC(=O)N1CCC(C#N)(c2nc(OC[C@@H]3CCCN3C)nc3c2CCC(c2cc(O)cc4ccccc24)C3)CC1` (stereo partly drawn) [Example 7a, 4-[7-(3-hydroxy-1-naphthyl)-2-[[(2S)-1-methylpyrrolidin-2-yl]methoxy]-5,6,7,8-tetrahydroquinazolin-4-yl]-1-prop-2-enoyl-piperidine-4-carbonitrile], on K-Ras G12C [1], a half-maximal response (EC50) required 2500 nM. This compound came in with an IC50 against K-Ras G12C [2] of 87 nM.

As to `C=CC(=O)N1CCN(c2nc(OC[C@@H]3CCCN3C)nc3c2CC(C)C(c2c(C)ccc4[nH]ncc24)C3)CC1` (stereo partly drawn) [Example 18a, 1-(4-(6-methyl-7-(5-methyl-1H-indazol-4-yl)-2-(((S)-1-methylpyrrolidin-2-yl)methoxy)-5,6,7,8-tetrahydroquinazolin-4-yl)piperazin-1-yl)prop-2-en-1-one], at K-Ras G12C [1], the midpoint of the response, the EC50, lay at 280 nM. The same compound returned an IC50 against K-Ras G12C [2] of 24 nM.

Turning to `C=CC(=O)N1CCN(c2nc(OC[C@@H]3CCCN3C)nc3c2CCC2(CCCCC2)C3)CC1` [Example 25a, (S)-1-(4-(2′-((1-methylpyrrolidin-2-yl)methoxy)-5′,8′-dihydro-6′H-spiro[cyclohexane-1,7′-quinazolin]-4′-yl)piperazin-1-yl)prop-2-en-1-one], on K-Ras G12C [1], the EC50 was 1000 nM. This compound also showed a half-inhibitory concentration (IC50) against K-Ras G12C [2] of 5400 nM.

At K-Ras G12C [1], `C=CC(=O)N1CCN(c2ncnc3c2CCC(c2nc(N)cc(C)c2C(F)(F)F)C3)CC1` (stereo not drawn) [Example 26, 1-[4-[7-[6-amino-4-methyl-3-(trifluoromethyl)-2-pyridyl]-5,6,7,8-tetrahydroquinazolin-4-yl]piperazin-1-yl]prop-2-en-1-one] had an EC50 of 2200 nM. The compound further had an IC50 at K-Ras G12C [2] of 270 nM.

`C=CC(=O)N1CCN(c2ncnc3c2CC[C@H](c2nc(N)cc(C)c2C(F)(F)F)C3)CC1` [Example 26a, (S)-1-(4-(7-(6-amino-4-methyl-3-(trifluoromethyl)pyridin-2-yl)-5,6,7,8-tetrahydroquinazolin-4-yl)piperazin-1-yl)prop-2-en-1-one]: the midpoint of the response at K-Ras G12C [1], the EC50, lay at 1200 nM. This compound also registered an IC50 against K-Ras G12C [2] of 180 nM.

In turn, `C=CC(=O)N1CCN(c2ncnc3c2CC[C@@H](c2nc(N)cc(C)c2C(F)(F)F)C3)CC1` [Example 26b, (R)-1-(4-(7-(6-amino-4-methyl-3-(trifluoromethyl)pyridin-2-yl)-5,6,7,8-tetrahydroquinazolin-4-yl)piperazin-1-yl)prop-2-en-1-one] showed an EC50 on K-Ras G12C [1] of 17000 nM. This compound had an IC50 at K-Ras G12C [2] of 4800 nM.

As to `CN1CCC[C@H]1COc1nc2c(c(N3CCN(C(=O)/C=C/CNC45CC(C4)C5)[C@@H](CC#N)C3)n1)CCC(c1cccc3ccccc13)C2` (stereo partly drawn) [Example 48a, 2-((2S)-1-((E)-4-(bicyclo[1.1.1]pentan-1-ylamino)but-2-enoyl)-4-(2-(((S)-1-methylpyrrolidin-2-yl)methoxy)-7-(naphthalen-1-yl)-5,6,7,8-tetrahydroquinazolin-4-yl)piperazin-2-yl)acetonitrile], the response on K-Ras G12C [1] was half-maximal at 150 nM (EC50). Inhibition on K-Ras G12C [2] was half-maximal at 11 nM (IC50).

As for `C=CC(=O)N1CCN(c2nc(OC[C@@H]3CCCN3C)nc3c2CCC(c2cc(O)cc4ccccc24)C3)CC1` (stereo partly drawn) [Example 49a, 1-[4-[7-(3-hydroxy-1-naphthyl)-2-[[(2S)-1-methylpyrrolidin-2-yl]methoxy]-5,6,7,8-tetrahydroquinazolin-4-yl]piperazin-1-yl]prop-2-en-1-one], on K-Ras G12C [1], the response was half-maximal at 170 nM (EC50). This compound also had an IC50 at K-Ras G12C [2] of 23 nM.

On K-Ras G12C [1], `C=CC(=O)Oc1cc(C2CCc3c(nc(OC[C@@H]4CCCN4C)nc3N3CCN(C(=O)C=C)CC3)C2)c2ccccc2c1` (stereo partly drawn) [Example 50a, 4-(4-(4-acryloylpiperazin-1-yl)-2-(((S)-1-methylpyrrolidin-2-yl)methoxy)-5,6,7,8-tetrahydroquinazolin-7-yl)naphthalen-2-yl acrylate] registered an EC50 of 170 nM. Further, at K-Ras G12C [2], inhibition was half-maximal at 160 nM (IC50).

As for `C=CC(=O)N1CCN(c2nc(OCC[C@@H]3CCCN3C)nc3c2CCC(c2cc(O)cc4ccccc24)C3)CC1` (stereo partly drawn) [Example 52a, 1-(4-(7-(3-hydroxynaphthalen-1-yl)-2-(2-((S)-1-methylpyrrolidin-2-yl)ethoxy)-5,6,7,8-tetrahydroquinazolin-4-yl)piperazin-1-yl)prop-2-en-1-one], at K-Ras G12C [1], the response was half-maximal at 990 nM (EC50). At K-Ras G12C [2], this compound yielded an IC50 of 51 nM.

`C=CC(=O)N1CCN(c2nc(OCCCN3CCOCC3)nc3c2CCC(c2cc(O)cc4ccccc24)C3)[C@@H](C)C1` (stereo partly drawn) [Example 53a, 1-((3S)-4-(7-(3-hydroxynaphthalen-1-yl)-2-(3-morpholinopropoxy)-5,6,7,8-tetrahydroquinazolin-4-yl)-3-methylpiperazin-1-yl)prop-2-en-1-one] yielded an EC50 on K-Ras G12C [1] of 230 nM. The compound also came in with an IC50 against K-Ras G12C [2] of 22 nM.

`C=CC(=O)N1CCN(c2nc(OCC3CCC(=O)N3)nc3c2CCC(c2cc(O)cc4ccccc24)C3)[C@@H](C)C1` (stereo partly drawn) [Example 55a, 5-(((4-((S)-4-acryloyl-2-methylpiperazin-1-yl)-7-(3-hydroxynaphthalen-1-yl)-5,6,7,8-tetrahydroquinazolin-2-yl)oxy)methyl)pyrrolidin-2-one] gave an EC50 on K-Ras G12C [1] of 6700 nM. In addition, on K-Ras G12C [2], it took 1400 nM to reach half-maximal inhibition (IC50).

`C=CC(=O)N1C[C@H](C)N(c2nc(OC[C@@H]3CCCN3C)nc3c2CCC(c2cc(O)cc4ccccc24)C3)[C@@H](C)C1` (stereo partly drawn) [Example 56a, 1-((3S,5S)-4-(7-(3-hydroxynaphthalen-1-yl)-2-(((S)-1-methylpyrrolidin-2-yl)methoxy)-5,6,7,8-tetrahydroquinazolin-4-yl)-3,5-dimethylpiperazin-1-yl)prop-2-en-1-one] had an EC50 at K-Ras G12C [1] of 620 nM. The compound further had an IC50 at K-Ras G12C [2] of 73 nM.

As for `C=CC(=O)N1CCN(c2nc(OC[C@@H]3CCCN3C)nc3c2CCC(c2cc(O)cc4ccccc24)C3)CC1CC#N` (stereo partly drawn) [Example 58a, 2-(1-acryloyl-4-(7-(3-hydroxynaphthalen-1-yl)-2-(((S)-1-methylpyrrolidin-2-yl)methoxy)-5,6,7,8-tetrahydroquinazolin-4-yl)piperazin-2-yl)acetonitrile], the response on K-Ras G12C [1] was half-maximal at 10 nM (EC50). Moreover, half-maximal inhibition against K-Ras G12C [2] (IC50) required 28 nM.
